Entries after “also recorded” stand apart in the source; their conditions may differ.
Experiments:
[1] = Stability assessment: storage for 4 weeks, HPLC analysis; assay type: physicochemical; settings: stored at room temperature
[2] = as above; assay type: physicochemical; settings: for Stability assessment (HPLC), Open ACC: open state, accelerated condition (40° C., 75% RH); for Stability assessment (HPLC), Closed STR: sealed state, harsh condition, oven at 80° C.
Protocol: About 10-30 mg of the sample was stored for 4 weeks in an open state under the accelerated condition (40° C., 75% RH) or in a sealed state under the harsh condition in an oven at 80° C.

CC(C)C(=O)N([C@H]1C[C@@H](C(=O)N2CCOCC2)N(C(=O)[C@@H]2CN(C(C)(C)C)C[C@H]2c2ccc(Cl)cc2)C1)[C@H]1CC[C@@H](C)CC1.Cl [Example 1, N-((3S, 5S)-1-((3S,4R)-1-(Tert-Butyl)-4-(4-Chlorophenyl) Pyrrolidine-3-Carbonyl)-5-(Morpholine-4-Carbonyl) Pyrrolidin-3-yl)-N-((1s,4R)-4-Methylcyclohexyl) Isobutyramide Hydrochloride]
Stability assessment (HPLC), Closed RT ([1]; Week 2, in % (unit assumed)): 97.99 | Stability assessment (HPLC), Closed RT ([1]; Week 4, in % (unit assumed)): 97.74 | Stability assessment (HPLC) ([2]; Initial, in % (unit assumed)): 98.72 | chemical stability (result in words) ([2]; accelerated condition (40° C., 75% RH) and harsh condition (80° C.), 4 weeks, listed as crystalline form I, Hydrochloride): showed chemical stability for 4 weeks; also recorded: exhibited chemical stability for 4 weeks | Stability assessment (HPLC), Open ACC ([2]; Day 3, in % (unit assumed)): 98.22 | Stability assessment (HPLC), Open ACC ([2]; Week 1, in % (unit assumed)): 98.45 | Stability assessment (HPLC), Open ACC ([2]; Week 2, in % (unit assumed)): 98.40 | Stability assessment (HPLC), Open ACC ([2]; Week 4, in % (unit assumed)): 98.32 | Stability assessment (HPLC), Closed STR ([2]; Day 3, in % (unit assumed)): 97.35 | Stability assessment (HPLC), Closed STR ([2]; Week 1, in % (unit assumed)): 97.28 | Stability assessment (HPLC), Closed STR ([2]; Week 2, in % (unit assumed)): 97.82 | Stability assessment (HPLC), Closed STR ([2]; Week 4, in % (unit assumed)): 97.30

Reference: patent US20230373984A1, “CRYSTALLINE FORM I OF MELANOCORTIN RECEPTOR AGONIST COMPOUND AND PREPARATION METHOD THEREFOR” (LG CHEM, LTD., priority 2020, published 2023)
